Test results as given in ChEMBL document CHEMBL5724914, “Linking interpersonal differences in gut microbiota composition and drug biotransformation activity” (2024).

Tests used:
[1] = (§1) The drug is tested on Z-027 corresponding to metagenome with ENA study accession number: PRJEB37062 and ENA sample accession number: ERS12561826 for biotransformation under anaerobic condition. The drug concentrations were measured over 9 timepoints collected between 0 and 24 hours of incubation by liquid-chromatography-coupled mass spectrometry (LC–MS); conditions: 2 µM
[2] = as §1, with “Z-026” for “Z-027”, “ERS12561825” for “ERS12561826”; conditions: 2 µM
[3] = (§2) The drug is tested on Z-024 corresponding to pig gut metagenome with ENA study accession number: PRJEB37062 and ENA sample accession number: ERS12561823 for biotransformation under anaerobic condition. The drug concentrations were measured over 9 timepoints collected between 0 and 24 hours of incubation by liquid-chromatography-coupled mass spectrometry (LC–MS); conditions: 2 µM
[4] = as §2, with “Z-022” for “Z-024”, “mouse” for “pig”, “ERS12561821” for “ERS12561823”; conditions: 2 µM
[5] = as §2, with “Z-009” for “Z-024”, “ERS12561809” for “ERS12561823”; conditions: 2 µM
[6] = as §1, with “Z-005” for “Z-027”, “ERS12561805” for “ERS12561826”; conditions: 2 µM
[7] = as §1, with “Z-004” for “Z-027”, “ERS12561804” for “ERS12561826”; conditions: 2 µM
[8] = as §2, with “WLS-086” for “Z-024”, “human” for “pig”, “ERS12561752” for “ERS12561823”; conditions: 2 µM
[9] = as §2, with “WLS-082” for “Z-024”, “human” for “pig”, “ERS12561751” for “ERS12561823”; conditions: 2 µM
[10] = as §2, with “WLS-069” for “Z-024”, “human” for “pig”, “ERS12561748” for “ERS12561823”; conditions: 2 µM
[11] = as §2, with “WLS-010” for “Z-024”, “human” for “pig”, “ERS12561743” for “ERS12561823”; conditions: 2 µM
[12] = human gut metagenome, 24 h, 2 µM
[13] = human gut metagenome, 24 h, 2 µM; remark: listed apart in the source
[14] = human gut metagenome, 24 h, 2 µM; remark: listed apart in the source
[15] = human gut metagenome, 24 h, 2 µM; remark: listed apart in the source
[16] = human gut metagenome, 24 h, 2 µM; remark: listed apart in the source
[17] = human gut metagenome, 24 h, 2 µM; remark: listed apart in the source
[18] = human gut metagenome, 24 h, 2 µM; remark: listed apart in the source
[19] = human gut metagenome, 24 h, 2 µM; remark: listed apart in the source
[20] = human gut metagenome, 24 h, 2 µM; remark: listed apart in the source
Also: call rule not given here.

SMILES | Bacterial Biotransformation [1] | Bacterial Biotransformation [2] | Bacterial Biotransformation [3] | Bacterial Biotransformation [4] | Bacterial Biotransformation [5] | Bacterial Biotransformation [6] | Bacterial Biotransformation [7] | Bacterial Biotransformation [8] | Bacterial Biotransformation [9] | Bacterial Biotransformation [10] | Bacterial Biotransformation [11] | Bacterial Biotransformation [12] | Bacterial Biotransformation [13] | Bacterial Biotransformation [14] | Bacterial Biotransformation [15] | Bacterial Biotransformation [16] | Bacterial Biotransformation [17] | Bacterial Biotransformation [18] | Bacterial Biotransformation [19] | Bacterial Biotransformation [20]
Cc1nc2n(c(=O)c1CCN1CCC(c3noc4cc(F)ccc34)CC1)CCCC2 [RISPERIDONE] | Compound metabolized | Compound NOT metabolized | Compound metabolized | Compound metabolized | Compound metabolized | Compound metabolized | Compound metabolized | Compound metabolized | Compound metabolized | Compound metabolized | Compound metabolized | Compound NOT metabolized | Compound metabolized | Compound metabolized | Compound metabolized | Compound metabolized | Compound metabolized | Compound metabolized | Compound metabolized | Compound metabolized
CCCc1nn(C)c2c(=O)[nH]c(-c3cc(S(=O)(=O)N4CCN(C)CC4)ccc3OCC)nc12.O=C(O)CC(O)(CC(=O)O)C(=O)O [SILDENAFIL CITRATE] | Compound NOT metabolized | Compound NOT metabolized | Compound metabolized | Compound metabolized | Compound NOT metabolized | Compound NOT metabolized | Compound NOT metabolized | Compound metabolized | Compound NOT metabolized | Compound NOT metabolized | Compound NOT metabolized | Compound NOT metabolized | Compound metabolized | Compound NOT metabolized | Compound NOT metabolized | Compound metabolized | Compound NOT metabolized | Compound NOT metabolized | Compound metabolized | Compound NOT metabolized
COc1ccc2[nH]c([S+]([O-])Cc3ncc(C)c(OC)c3C)nc2n1 (stereo not given) [TENATOPRAZOLE] | Compound metabolized | Compound metabolized | Compound NOT metabolized | Compound NOT metabolized | Compound metabolized | Compound metabolized | Compound metabolized | Compound metabolized | Compound metabolized | Compound metabolized | Compound metabolized | Compound NOT metabolized | Compound NOT metabolized | Compound NOT metabolized | Compound metabolized | Compound metabolized | Compound metabolized | Compound metabolized | Compound NOT metabolized | Compound metabolized
CN1C(C(=O)Nc2ccccn2)=C(O)c2sccc2S1(=O)=O [TENOXICAM] | Compound NOT metabolized | Compound NOT metabolized | Compound metabolized | Compound metabolized | Compound NOT metabolized | Compound NOT metabolized | Compound NOT metabolized | Compound NOT metabolized | Compound NOT metabolized | Compound NOT metabolized | Compound NOT metabolized | Compound NOT metabolized | Compound NOT metabolized | Compound NOT metabolized | Compound NOT metabolized | Compound NOT metabolized | Compound NOT metabolized | Compound NOT metabolized | Compound NOT metabolized | Compound NOT metabolized
O=c1n(CCCN2CCN(c3cccc(Cl)c3)CC2)nc2ccccn12 [TRAZODONE] | Compound NOT metabolized | Compound NOT metabolized | Compound metabolized | Compound metabolized | Compound NOT metabolized | Compound NOT metabolized | Compound metabolized | Compound metabolized | Compound metabolized | Compound metabolized | Compound NOT metabolized | Compound NOT metabolized | Compound metabolized | Compound metabolized | Compound metabolized | Compound NOT metabolized | Compound NOT metabolized | Compound metabolized | Compound metabolized | Compound metabolized

Further lines, results first:

Bacterial Biotransformation [1] | Bacterial Biotransformation [2] | Bacterial Biotransformation [3] | Bacterial Biotransformation [4] | Bacterial Biotransformation [5] | Bacterial Biotransformation [6] | Bacterial Biotransformation [7] | Bacterial Biotransformation [8] | Bacterial Biotransformation [9] | Bacterial Biotransformation [10] | Bacterial Biotransformation [11] | Bacterial Biotransformation [12] | Bacterial Biotransformation [13] | Bacterial Biotransformation [14] | Bacterial Biotransformation [15] | Bacterial Biotransformation [16] | Bacterial Biotransformation [17] | Bacterial Biotransformation [18] | Bacterial Biotransformation [19] | Bacterial Biotransformation [20] | SMILES
Compound NOT metabolized | Compound NOT metabolized | Compound metabolized | Compound metabolized | Compound metabolized | Compound metabolized | Compound metabolized | Compound metabolized | Compound NOT metabolized | Compound metabolized | Compound NOT metabolized | Compound NOT metabolized | Compound metabolized | Compound metabolized | Compound metabolized | Compound NOT metabolized | Compound NOT metabolized | Compound metabolized | Compound metabolized | Compound metabolized | OC(CCN1CCCCC1)(c1ccccc1)C1CCCCC1 (stereo not given) [TRIHEXYPHENIDYL]
Compound NOT metabolized | Compound NOT metabolized | Compound NOT metabolized | Compound NOT metabolized | Compound NOT metabolized | Compound NOT metabolized | Compound NOT metabolized | Compound NOT metabolized | Compound NOT metabolized | Compound NOT metabolized | Compound NOT metabolized | Compound NOT metabolized | Compound NOT metabolized | Compound NOT metabolized | Compound metabolized | Compound NOT metabolized | Compound NOT metabolized | Compound NOT metabolized | Compound metabolized | Compound NOT metabolized | Cc1ccc(/C(=C\CN2CCCC2)c2ccccn2)cc1 [TRIPROLIDINE]
Compound metabolized | Compound metabolized | Compound NOT metabolized | Compound metabolized | Compound NOT metabolized | Compound NOT metabolized | Compound metabolized | Compound NOT metabolized | Compound NOT metabolized | Compound NOT metabolized | Compound metabolized | Compound NOT metabolized | Compound NOT metabolized | Compound NOT metabolized | Compound NOT metabolized | Compound NOT metabolized | Compound NOT metabolized | Compound NOT metabolized | Compound NOT metabolized | Compound NOT metabolized | Cc1cn([C@H]2C[C@H](N=[N+]=[N-])[C@@H](CO)O2)c(=O)[nH]c1=O [ZIDOVUDINE]
